From publication PMC3775972 (Wound repair and regeneration : official publication of the …, 2013)

Key:
[1] = test system: hybridoma mouse cells; settings: nM concentrations; cited from earlier work
[2] = test system: T-lymphoblastic leukaemia CEM cells; settings: read-out: IC50, cytotoxicity; cited from earlier work
[3] = test system: TNF-α mRNA; experiment: Real time PCR of wound tissue, TNF-α; format: in vivo; settings: d 10 post-wounding, 10 μg/mouse topical daily
[4] = test system: TGF-β mRNA; experiment: Real time PCR of wound tissue, TGF-β; format: in vivo; settings: d 10 post-wounding, 10 μg/mouse topical daily
[5] = test system: ICAM-1 mRNA; experiment: Real time PCR of wound tissue, ICAM-1; format: in vivo; settings: d 10 post-wounding, 10 μg/mouse topical daily
[6] = test system: macrophage cell culture; experiment: LPS-stimulated inflammation in macrophage cell culture; format: cell-based; settings: preliminary data, not shown
[7] = test system: 3T3 mouse fibroblasts; experiment: Scratch wound closure; format: cell-based; settings: for Scratch wound closure at 5 μM, %: 12 h incubation, mean ± SEM; for Fibroblast migration / scratch wound closure activity (in words): dose dependence at 0.1–10 μM, 12 h
[8] = Body weight and food intake after wounding; format: in vivo; settings: 10 μg/mouse topically daily, d 2 post-wounding
[9] = test system: full thickness dermal wound in C57BL/6J mice; experiment: Mouse model of cutaneous wound healing; format: in vivo
[10] = test system: A549 cancer cell line; settings: cited from earlier work
[11] = test system: HeLa cancer cell line; settings: cited from earlier work
[12] = test system: 3T3 mouse fibroblasts; experiment: Fibroblast viability / cytotoxicity assay; format: cell-based; settings: for IC50: read-out: Cell cytotoxicity, IC, MTT, 0.3–30 μM for 4 h
[13] = test system: 3T3 mouse fibroblasts; experiment: Fibroblast proliferation assay; format: cell-based; settings: 24 h, BrdU, mean ± SEM
[14] = test system: K562 cancer cell line; settings: cited from earlier work
[15] = test system: HOS cancer cell line; settings: cited from earlier work
[16] = test system: primary mouse keratinocytes; experiment: Primary keratinocyte proliferation assay; format: cell-based; settings: for Proliferation of primary keratinocytes: versus vehicle (ethanol); for Proliferation of primary keratinocytes, dose dependence: respective doses, Alamar Blue
[17] = test system: healthy rats; settings: oral administration, associated with activation of Akt; cited from earlier work
[18] = test system: RPMI 8226 cancer cells; settings: read-out: IC50, cytotoxicity; RPMI 8226 cells; cited from earlier work
[19] = test system: phospho-Akt1(Ser473); experiment: Western blot of edge-of-the-wound tissue, Akt phosphorylation; format: in vivo; settings: 10 μg/mouse topical daily
[20] = test system: human cancer cell lines; settings: below 50 μM; cited from earlier work
[21] = Fibroblast viability / cytotoxicity assay; format: cell-based, mouse; settings: mouse, NIH 3T3 fibroblasts (ATCC CCL-92)
[22] = test system: 3T3 mouse fibroblasts; settings: PDGF 2 nM, reference treatment; cited from earlier work

CC(C)[C@@H](C)[C@@H](O)[C@H](O)[C@@H](C)[C@H]1CC[C@H]2[C@@H]3COC(=O)[C@H]4C[C@H](O)[C@H](O)C[C@]4(C)[C@H]3CC[C@]12C [24-epibrassinolide]
Proportions of viable hybridoma mouse cells [1]: increased

CC[C@@H](C(C)C)[C@@H](O)[C@H](O)[C@@H](C)[C@H]1CC[C@H]2[C@@H]3CC(=O)[C@H]4C[C@H](O)[C@H](O)C[C@]4(C)[C@H]3CC[C@]12C [(22R, 23R)-homocastasterone, reference compound]
IC50 [2]: 13 µM

CCNC(=O)[C@H]1O[C@@H](n2cnc3c(N)nc(NCCc4ccc(CCC(=O)O)cc4)nc32)[C@H](O)[C@@H]1O [CGS-21680, reference compound]
TNF-α mRNA level in wound tissue [3]: remarkable suppression
TGF-β mRNA level in wound tissue [4]: no effect
ICAM-1 mRNA level in wound tissue [5]: no effect

CC[C@@H](C(C)C)[C@H](O)[C@@H](O)[C@@H](C)[C@H]1CC[C@H]2[C@@H]3COC(=O)[C@H]4C[C@H](O)[C@H](O)C[C@]4(C)[C@H]3CC[C@]12C [Compound 1, (22S, 23S, 24S)-2α, 3 α, 22,23-tetrahydroxy-24 ethyl-^2-homo-7-oxo-5α-cholestane-6-one]
TNF-α mRNA level in wound tissue [3]: nearly complete downregulation
Effect on LPS-stimulated inflammation [6]: no pro- or anti-inflammatory effect
Scratch wound closure at 5 μM, % [7]: 30 ± 4.2 %
Scratch wound closure at 5 μM, % ([7]; listed as HB): 30 ± 4.2%
Body weight loss associated with injury [8]: tendency for HB to reduce weight loss
Cutaneous wound healing ([9]; 10 μg topical per mouse per day for 10 d, versus vehicle): significantly improved
Increase in speed of wound closure relative to control mice ([9]; d 4, percent of original wound size, 10 μg/mouse topical): 2 fold
Cytotoxicity (in words) [10]: no cytotoxicity
IC50 [2]: ~30 µM
Cytotoxicity (in words) [11]: no cytotoxicity
Cytotoxicity (in words) ([12]; at or up to 30 μM, the highest concentration tested): no cytotoxicity
IC50 [12]: > 30 µM
Cell proliferation at 5 μM, % of control [13]: 37.7 ± 3.4 % of control
Cytotoxicity (in words) [14]: no cytotoxicity
TGF-β mRNA level in wound tissue [4]: weak effect
ICAM-1 mRNA level in wound tissue [5]: significant suppression
Cytotoxicity (in words) [15]: no cytotoxicity
Proliferation of primary keratinocytes ([16]; 3 μM): did not reach significance
Proliferation of primary keratinocytes ([16]; doses of 0.3 and 10 μM): significant increase
Anabolic response [17]: selective anabolic response
IC50 [18]: ~30 µM
Akt-1 phosphorylation in edge-of-the-wound tissue [19]: upregulation

CC[C@@H](C(C)C)[C@H](O)[C@@H](O)[C@@H](C)[C@H]1CC[C@H]2[C@@H]3CC(=O)[C@H]4C[C@H](O)[C@H](O)C[C@]4(C)[C@H]3CC[C@]12C [Compound 2, (22S, 23S, 24S)-2α, 3α, 22, 23-tetrahydroxy-24-ethyl-5α-cholestan-6-one]
Cytotoxicity (in words) [20]: weak to no cytotoxicity
Scratch wound closure at 5 μM, % [7]: 32.9 ± 4.1 %
IC50 at 4 h [21]: > 30 µM

CC[C@H](C(C)C)[C@H](O)[C@@H](O)[C@@H](C)[C@H]1CC[C@H]2[C@@H]3COC(=O)[C@H]4C[C@H](F)CC[C@]4(C)[C@H]3CC[C@]12C [Compound 3, (22S,23S,24R)-3α-fluoro-22,23-dihydroxy-24-ethyl-^2-homo-7-oxa-5 α-cholestan-6-one]
Scratch wound closure at 5 μM, % [7]: 15.3 ± 2.6%
IC50 [12]: ~30 µM

CC[C@@H](C(C)C)[C@H](O)[C@@H](O)[C@@H](C)[C@H]1CC[C@H]2[C@@H]3CC(=O)[C@H]4C[C@H](F)CC[C@]4(C)[C@H]3CC[C@]12C [Compound 4, (22S,23S,24S)-3α-fluoro-22,23-dihydroxy-24-ethyl-5 α-cholestan-6-one]
Scratch wound closure at 5 μM, % [7]: 27.7 ± 4.0 %
Fibroblast migration / scratch wound closure activity (in words) [7]: high activity similar to HB
IC50 at 4 h [21]: ~30 µM
Proliferation of primary keratinocytes, dose dependence [16]: dose-dependently decreased

CC[C@@H](C(C)C)[C@H](O)[C@@H](O)[C@@H](C)[C@H]1CC[C@H]2[C@@H]3CNC(=O)[C@H]4C[C@H](O)[C@H](O)C[C@]4(C)[C@H]3CC[C@]12C [Compound 5, (22S,23S,24S)-2α,3α,22,23-tetrahydroxy-24-ethyl-^2-homo-7-aza-5α-cholestan-6-one]
Scratch wound closure at 5 μM, % [7]: 13.0 ± 0.7%
Fibroblast migration / scratch wound closure activity (in words) [7]: no effect
IC50 [12]: 12.5 µM

CC[C@@H](C(C)C)[C@H](O)[C@@H](O)[C@@H](C)[C@H]1CC[C@H]2[C@@H]3CC(=O)N[C@H]4C[C@H](O)[C@H](O)C[C@]4(C)[C@H]3CC[C@]12C [Compound 6, (22S,23S,24S)-2α,3α,22,23-tetrahydroxy-24-ethyl-^2-homo-6-aza-5α-cholestan-7-one]
Scratch wound closure at 5 μM, % [7]: 30.5 ± 4.2 %
Fibroblast migration / scratch wound closure activity (in words) [7]: highest activity at 3 μM
IC50 [12]: > 30 µM
Proliferation of primary keratinocytes, dose dependence [16]: dose-dependently decreased

CC(C)[C@H](C)[C@H](O)[C@@H](O)[C@@H](C)[C@H]1CC[C@H]2[C@@H]3COC(=O)[C@H]4C[C@@H](O)[C@H](O)C[C@]4(C)[C@H]3CC[C@]12C [Compound 8, (22S,23S,24R)-2α,3α,22,23-tetrahydroxy-24-methyl-^2-homo-7-oxa-5α-cholestan-6-one]
Scratch wound closure at 5 μM, % [7]: 13.2 ± 1.5%
IC50 [12]: > 30 µM
Cell proliferation at 5 μM, % of control [13]: 31.9 ± 5.3 % of control

CC(C)[C@@H](C)[C@@H](O)[C@H](O)[C@@H](C)[C@H]1CC[C@H]2[C@@H]3COC(=O)[C@H]4C[C@H](O)[C@H](O)C[C@]4(C)[C@H]3CC[C@]12C [Compound 9, (22R,23R,24R)-2α,3α,22,23-tetrahydroxy-24-methyl-^2-homo-7-oxa-5α-cholestan-6-one]
Scratch wound closure at 5 μM, % [7]: 8.1 ± 1.6%
IC50 [12]: > 30 µM
Cell proliferation at 5 μM, % of control [13]: 31.0 ± 2.6 % of control

PDGF
Scratch wound closure, % [22]: 64.8 ± 1.7 %
